# From patent US6706509B2, “Oncoprotein protein kinase” (The Regents of the University of California, priority 1993, dated 2004)
# Test system: JNK1
# Experiment: Epitope-tagged JNK1 protein kinase activity in transfected COS cells
# Type: cell-based
# Settings: 10 nM EGF or 100 nM TPA
# Method: JNK1 protein kinase activity was detected in the immune-complex. Immunecomplex kinase assays using either M2 immunoprecipitates or purified JNK1, JNK-46, and ERK1 or ERK2 were performed at 30° C. for 20 mins using 3 μg of substrate, 20 μM ATP and 5 μCi of [γ-^32P]ATP in 30 μl of kinase buffer (25 mM Hepes (pH 7.6), 20 mM MgCl2, 20 mM β-glycerophosphate, 20 mM p-nitrophenyl phosphate, 0.1 mM Na orthovanadate, 2 mM DTT). The reactions were terminated with Laemmli sample buffer and the products were resolved by SDS-PAGE (12% gel). JNK1 protein activity was also measured after SDS-PAGE by the in-gel kinase assay with the substrate GST-cJun(1-79) as described by Hibi, et al., supra, (1993). Solid-phase protein kinase assays were performed as described by Hibi, et al., supra, (1993). Clarified cell extracts were incubated with GST fusion proteins immobilized on GSH-agarose beads. After 3 hours at 4° C., the beads were washed extensively and bound JNK1 was detected by the addition of [γ-^32P]ATP. The reaction was terminated after 10 mins at 30° C. and the products were resolved by SDS-PAGE. The incorporation of [^32P]phosphate was visualized by autoradiography and quantitated with a phosphorimager and ImageQuant software (Molecular Dynamics Inc., Sunnyvale, Calif.). The methods used for phosphopeptide mapping (Boyle, et al., Cell 64:573-584, 1991) and phosphoamino acid analysis (Alvarez, et al., J. Biol. Chem 266:15227-15285, 1991) were described previously.
# Epitope-tagged JNK1 was expressed in COS cells. Control experiments were performed using mock-transfected cells. After 48 hours, the cells were treated either without or with 100 nM TPA, 10 nM EGF, or 80 J/m^2 UV-C and incubated for 1 hr. The cells were lysed in RIPA buffer and the JNK1 proteins were isolated by immunoprecipitation with the M2 monoclonal antibody. JNK1 protein kinase activity was measured after SDS-PAGE using an in-gel kinase assay with the substrate GST-cJun(1-79) polymerized into the gel.
# COS-1 cells were maintained in. Dulbecco's modified Eagle's medium supplemented with 5% […] (Gibco-BRL). Metabolic labeling with [^32P]phosphate was performed by incubation of cells in phosphate-free modified Eagle's medium (Flow Laboratories Inc.) supplemented with 0.1% fetal bovine serum and 1 mCi/ml [^32P]orthophosphate (Dupont-NEN). COS cells were treated with 10 nM EGF or 100 nM thorbol myristate acetate. The cells were then incubated for defined times at 37° C. prior to harvesting and measurement of JNK1 protein kinase activity. The data are presented as arbitrary units. […] In contrast, exposure to UV radiation caused a marked increase in JNK1 activity.
substance,measurement,value
"EGF: EGF, used at 10 nM to treat COS cells (NSDSECPLSHDGYCLHDGVCMYIEALDKYACNCVVGYIGERCQYRDLKWWELR; UniProt P01133 971-1023, looked up)",JNK1 activation,low level of JNK1 activation
same,duration of JNK1 activation,approximately 2 hours
